Experimental data: ChEMBL document CHEMBL4152312, “Identification of fused pyrimidines as interleukin 17 secretion inhibitors” (Eur J Med Chem, 2018)

Experiments:
[1] = target: Tyrosine-protein kinase Lyn (Homo sapiens) (UniProt P07948); assay: Inhibition of recombinant human full-length N-terminal His-tagged LYN-B expressed in baculovirus expression system at 500 nM by Z-LYTE assay relative to control
[2] = target: RAC-alpha serine/threonine-protein kinase (Homo sapiens) (UniProt P31749); assay: Inhibition of recombinant human full length His-tagged AKT1 expressed in baculovirus expression system at 500 nM by Z-LYTE assay relative to control
[3] = target: Protein kinase C theta type (Homo sapiens) (UniProt Q04759); assay: Inhibition of recombinant full length human His-tagged PKCtheta expressed in baculovirus expression system at 500 nM by Z-LYTE assay relative to control
[4] = target: T1, Calcium/calmodulin-dependent protein kinase type IV (Homo sapiens) (UniProt Q16566); assay: Inhibition of recombinant human full length GST-tagged CAMK4 expressed in Escherichia coli at 500 nM by Z-LYTE assay relative to control
T1 sequence (whole entry): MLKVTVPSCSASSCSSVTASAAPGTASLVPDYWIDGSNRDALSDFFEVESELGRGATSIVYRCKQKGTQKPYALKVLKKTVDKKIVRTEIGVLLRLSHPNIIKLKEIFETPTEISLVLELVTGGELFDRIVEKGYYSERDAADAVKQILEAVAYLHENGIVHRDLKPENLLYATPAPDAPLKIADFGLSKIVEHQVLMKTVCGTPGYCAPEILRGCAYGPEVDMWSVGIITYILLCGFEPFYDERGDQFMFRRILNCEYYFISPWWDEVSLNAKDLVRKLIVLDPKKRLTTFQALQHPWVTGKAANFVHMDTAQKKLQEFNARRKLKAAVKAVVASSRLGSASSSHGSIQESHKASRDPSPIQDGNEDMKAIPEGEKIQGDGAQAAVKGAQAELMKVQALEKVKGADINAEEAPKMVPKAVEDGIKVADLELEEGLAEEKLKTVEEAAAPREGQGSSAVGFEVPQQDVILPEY

[5] = target: T2, Inhibitor of nuclear factor kappa-B kinase subunit beta (Homo sapiens) (UniProt O14920); assay: Inhibition of recombinant full-length human GST-tagged IKKbeta expressed in baculovirus expression system at 500 nM by Z-LYTE assay relative to control
T2 sequence (whole entry): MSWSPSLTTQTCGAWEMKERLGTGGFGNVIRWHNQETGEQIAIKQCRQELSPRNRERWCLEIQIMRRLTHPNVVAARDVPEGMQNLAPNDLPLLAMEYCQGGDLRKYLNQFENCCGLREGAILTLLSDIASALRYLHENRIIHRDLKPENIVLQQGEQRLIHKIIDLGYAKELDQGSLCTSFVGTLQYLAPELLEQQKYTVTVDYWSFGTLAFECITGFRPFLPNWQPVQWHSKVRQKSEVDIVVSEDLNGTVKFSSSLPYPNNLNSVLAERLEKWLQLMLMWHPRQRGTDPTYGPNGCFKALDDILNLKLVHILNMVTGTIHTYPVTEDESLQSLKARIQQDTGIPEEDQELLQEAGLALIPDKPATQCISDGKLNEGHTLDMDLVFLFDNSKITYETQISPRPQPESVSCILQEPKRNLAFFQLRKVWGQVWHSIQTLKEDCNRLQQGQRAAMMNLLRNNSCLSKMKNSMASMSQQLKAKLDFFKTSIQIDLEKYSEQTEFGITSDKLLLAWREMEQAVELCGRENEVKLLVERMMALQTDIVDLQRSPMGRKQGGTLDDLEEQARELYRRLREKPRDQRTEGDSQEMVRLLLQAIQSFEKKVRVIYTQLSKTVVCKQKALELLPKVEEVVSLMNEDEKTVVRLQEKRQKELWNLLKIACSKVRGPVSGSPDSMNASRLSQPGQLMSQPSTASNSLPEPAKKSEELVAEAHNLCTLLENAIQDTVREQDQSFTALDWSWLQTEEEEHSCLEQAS

[6] = target: Receptor tyrosine-protein kinase erbB-4 (Homo sapiens) (UniProt Q15303); assay: Inhibition of recombinant humans GST-tagged ERBB4 cytoplasmic domain expressed in baculovirus expression system at 500 nM by Z-LYTE assay relative to control
PBMC = assay: Inhibition of IL-17 secretion in anti-human CD3 antibody/anti-human CD28 antibody/IL23-stimulated human PBMC after 48 hrs by ELISA; assay type: functional, cell-based
[7] = target: Tyrosine-protein kinase Yes (Homo sapiens) (UniProt P07947); assay: Inhibition of human full length GST-tagged YES1 expressed in baculovirus expression system at 500 nM by Z-LYTE assay relative to control
[8] = target: Mitogen-activated protein kinase 3 (Homo sapiens) (UniProt P27361); assay: Inhibition of recombinant human full length GST-tagged ERK1 expressed in Escherichia coli at 500 nM by Z-LYTE assay relative to control
[9] = target: Proto-oncogene tyrosine-protein kinase receptor Ret (Homo sapiens) (UniProt P07949); assay: Inhibition of recombinant human GST-tagged RET cytoplasmic domain expressed in baculovirus expression system at 500 nM by Z-LYTE assay relative to control
[10] = target: Serine/threonine-protein kinase pim-2 (Homo sapiens) (UniProt Q9P1W9); assay: Inhibition of recombinant full length human GST-tagged PIM2 expressed in baculovirus expression system at 500 nM by Z-LYTE assay relative to control
[11] = target: Mast/stem cell growth factor receptor Kit (Homo sapiens) (UniProt P10721); assay: Inhibition of recombinant human His-tagged KIT cytoplasmic domain (544 to 976 residues) expressed in baculovirus expression system at 500 nM by Z-LYTE assay relative to control
[12] = target: Mitogen-activated protein kinase 14 (Homo sapiens) (UniProt Q16539); assay: Inhibition of recombinant human full length His-tagged p38-alpha expressed in baculovirus expression system at 500 nM by Z-LYTE assay relative to control
[13] = target: Tyrosine-protein kinase BTK (Homo sapiens) (UniProt Q06187); assay: Inhibition of recombinant human full length His-tagged BTK expressed in baculovirus expression system at 500 nM by Z-LYTE assay relative to control
[14] = target: Proto-oncogene tyrosine-protein kinase ROS (Homo sapiens) (UniProt P08922); assay: Inhibition of recombinant human GST-tagged ROS1 cytoplasmic domain (1883 to 2347 residues) expressed in baculovirus expression system at 500 nM by Z-LYTE assay relative to control
[15] = target: Epidermal growth factor receptor (Homo sapiens) (UniProt P00533); assay: Inhibition of recombinant human GST-tagged wild-type EGFR cytoplasmic domain (668 to 1210 residues) expressed in baculovirus expression system at 500 nM by Z-LYTE assay relative to control
Chain of Epidermal growth factor receptor (Homo sapiens) (P00533 whole entry, the tested form may be a part): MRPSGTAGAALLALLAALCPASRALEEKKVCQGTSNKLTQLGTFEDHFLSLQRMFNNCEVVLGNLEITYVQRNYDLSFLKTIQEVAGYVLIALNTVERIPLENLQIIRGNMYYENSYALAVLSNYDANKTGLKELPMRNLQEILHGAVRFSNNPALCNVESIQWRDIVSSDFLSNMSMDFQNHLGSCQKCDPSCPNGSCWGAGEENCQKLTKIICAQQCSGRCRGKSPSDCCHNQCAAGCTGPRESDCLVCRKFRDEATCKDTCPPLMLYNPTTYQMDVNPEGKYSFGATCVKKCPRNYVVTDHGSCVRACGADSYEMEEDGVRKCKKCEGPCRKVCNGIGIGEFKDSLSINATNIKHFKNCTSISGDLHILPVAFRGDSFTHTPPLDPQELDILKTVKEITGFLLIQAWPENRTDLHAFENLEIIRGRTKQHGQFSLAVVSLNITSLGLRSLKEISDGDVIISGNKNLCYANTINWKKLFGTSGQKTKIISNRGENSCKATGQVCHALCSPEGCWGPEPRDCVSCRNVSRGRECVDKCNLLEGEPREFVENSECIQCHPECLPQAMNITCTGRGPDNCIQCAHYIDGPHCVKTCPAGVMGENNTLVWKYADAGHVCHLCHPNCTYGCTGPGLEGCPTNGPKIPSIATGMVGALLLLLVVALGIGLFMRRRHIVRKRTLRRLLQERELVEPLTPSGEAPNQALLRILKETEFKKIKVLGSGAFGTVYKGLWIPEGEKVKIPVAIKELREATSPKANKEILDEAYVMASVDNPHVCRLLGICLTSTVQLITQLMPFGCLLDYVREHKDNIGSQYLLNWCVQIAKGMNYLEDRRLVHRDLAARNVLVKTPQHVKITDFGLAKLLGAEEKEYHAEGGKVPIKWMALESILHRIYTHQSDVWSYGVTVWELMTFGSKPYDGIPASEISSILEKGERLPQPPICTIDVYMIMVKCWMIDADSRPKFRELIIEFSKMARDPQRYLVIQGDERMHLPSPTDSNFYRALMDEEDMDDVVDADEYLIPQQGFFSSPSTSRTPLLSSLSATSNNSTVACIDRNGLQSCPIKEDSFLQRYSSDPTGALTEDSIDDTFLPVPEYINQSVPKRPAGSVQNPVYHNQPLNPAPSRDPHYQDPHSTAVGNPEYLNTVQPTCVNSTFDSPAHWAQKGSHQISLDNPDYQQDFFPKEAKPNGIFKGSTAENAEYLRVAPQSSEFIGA

Chain of Protein kinase C theta type (Homo sapiens) (Q04759 whole entry, looked up): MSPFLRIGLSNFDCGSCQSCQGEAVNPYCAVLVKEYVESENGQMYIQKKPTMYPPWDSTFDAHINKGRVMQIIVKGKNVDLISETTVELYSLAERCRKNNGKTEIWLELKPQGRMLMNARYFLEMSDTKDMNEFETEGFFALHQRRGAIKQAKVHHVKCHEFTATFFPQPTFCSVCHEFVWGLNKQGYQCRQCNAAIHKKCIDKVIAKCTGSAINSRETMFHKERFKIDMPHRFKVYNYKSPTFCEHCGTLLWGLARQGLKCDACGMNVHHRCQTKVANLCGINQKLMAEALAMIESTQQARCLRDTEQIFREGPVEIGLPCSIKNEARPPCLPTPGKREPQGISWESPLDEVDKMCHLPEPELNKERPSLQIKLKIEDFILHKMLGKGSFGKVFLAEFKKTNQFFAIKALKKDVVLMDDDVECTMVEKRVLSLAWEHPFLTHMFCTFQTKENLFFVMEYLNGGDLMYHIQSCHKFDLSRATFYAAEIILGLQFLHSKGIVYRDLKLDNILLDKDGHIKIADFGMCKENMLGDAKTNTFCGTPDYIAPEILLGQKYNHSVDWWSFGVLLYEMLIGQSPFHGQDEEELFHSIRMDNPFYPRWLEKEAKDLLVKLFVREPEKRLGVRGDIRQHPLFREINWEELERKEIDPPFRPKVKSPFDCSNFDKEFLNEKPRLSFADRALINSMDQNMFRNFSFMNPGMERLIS
Chain of Mitogen-activated protein kinase 3 (Homo sapiens) (P27361 whole entry, the tested form may be a part): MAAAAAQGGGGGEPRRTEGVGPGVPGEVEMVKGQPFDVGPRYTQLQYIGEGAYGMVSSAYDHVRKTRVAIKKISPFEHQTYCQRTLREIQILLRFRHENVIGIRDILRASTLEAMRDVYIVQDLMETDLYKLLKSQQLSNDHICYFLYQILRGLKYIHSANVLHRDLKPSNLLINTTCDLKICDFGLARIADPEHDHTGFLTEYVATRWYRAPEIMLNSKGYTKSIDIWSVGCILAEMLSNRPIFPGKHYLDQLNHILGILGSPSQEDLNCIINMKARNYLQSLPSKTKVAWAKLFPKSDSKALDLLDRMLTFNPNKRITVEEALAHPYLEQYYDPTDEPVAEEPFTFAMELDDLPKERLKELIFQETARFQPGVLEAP
Chain of Proto-oncogene tyrosine-protein kinase receptor Ret (Homo sapiens) (P07949 whole entry, the tested form may be a part): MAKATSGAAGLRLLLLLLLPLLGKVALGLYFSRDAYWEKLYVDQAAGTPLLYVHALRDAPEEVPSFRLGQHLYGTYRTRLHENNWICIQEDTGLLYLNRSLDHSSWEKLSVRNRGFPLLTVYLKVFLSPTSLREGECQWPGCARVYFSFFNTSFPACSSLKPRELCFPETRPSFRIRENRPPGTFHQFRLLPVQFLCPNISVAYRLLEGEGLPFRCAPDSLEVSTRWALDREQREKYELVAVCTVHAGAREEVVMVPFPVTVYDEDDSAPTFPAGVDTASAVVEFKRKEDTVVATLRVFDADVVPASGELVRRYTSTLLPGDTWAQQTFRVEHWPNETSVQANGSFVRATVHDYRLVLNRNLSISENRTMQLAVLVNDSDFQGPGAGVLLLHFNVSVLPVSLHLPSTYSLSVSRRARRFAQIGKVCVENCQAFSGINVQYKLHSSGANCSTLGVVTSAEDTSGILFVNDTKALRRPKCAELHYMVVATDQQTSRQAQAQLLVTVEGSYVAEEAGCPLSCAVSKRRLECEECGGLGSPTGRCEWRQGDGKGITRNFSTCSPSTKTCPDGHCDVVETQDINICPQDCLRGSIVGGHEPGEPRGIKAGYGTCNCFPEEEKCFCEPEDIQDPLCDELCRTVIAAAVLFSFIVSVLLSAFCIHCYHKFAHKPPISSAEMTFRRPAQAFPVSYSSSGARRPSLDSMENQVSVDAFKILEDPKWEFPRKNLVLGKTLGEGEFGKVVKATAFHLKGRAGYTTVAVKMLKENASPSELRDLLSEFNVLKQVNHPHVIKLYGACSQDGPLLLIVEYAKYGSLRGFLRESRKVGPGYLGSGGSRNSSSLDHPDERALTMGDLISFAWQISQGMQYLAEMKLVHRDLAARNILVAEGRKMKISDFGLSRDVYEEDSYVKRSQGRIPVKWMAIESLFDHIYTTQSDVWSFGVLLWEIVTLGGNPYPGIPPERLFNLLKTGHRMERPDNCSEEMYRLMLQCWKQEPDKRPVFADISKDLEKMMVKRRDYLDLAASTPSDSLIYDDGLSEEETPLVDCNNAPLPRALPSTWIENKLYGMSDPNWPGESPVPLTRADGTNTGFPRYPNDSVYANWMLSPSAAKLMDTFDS
Chain of Tyrosine-protein kinase Lyn (Homo sapiens) (P07948 2-512 limits assumed): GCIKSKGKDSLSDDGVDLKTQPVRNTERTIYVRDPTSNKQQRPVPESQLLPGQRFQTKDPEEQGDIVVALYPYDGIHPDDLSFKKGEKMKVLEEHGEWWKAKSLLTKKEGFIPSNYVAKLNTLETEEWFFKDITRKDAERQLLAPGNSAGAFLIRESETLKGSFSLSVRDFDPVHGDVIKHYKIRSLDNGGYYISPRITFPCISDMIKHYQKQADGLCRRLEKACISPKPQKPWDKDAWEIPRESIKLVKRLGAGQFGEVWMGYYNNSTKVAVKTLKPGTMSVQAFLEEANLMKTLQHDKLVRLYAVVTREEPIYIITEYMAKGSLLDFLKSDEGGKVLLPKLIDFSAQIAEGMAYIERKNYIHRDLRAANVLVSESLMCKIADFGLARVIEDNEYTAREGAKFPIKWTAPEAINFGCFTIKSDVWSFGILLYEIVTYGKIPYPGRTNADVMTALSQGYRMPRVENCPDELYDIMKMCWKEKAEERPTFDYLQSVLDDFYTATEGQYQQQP
Chain of Serine/threonine-protein kinase pim-2 (Homo sapiens) (Q9P1W9 whole entry, looked up, the tested form may be a part): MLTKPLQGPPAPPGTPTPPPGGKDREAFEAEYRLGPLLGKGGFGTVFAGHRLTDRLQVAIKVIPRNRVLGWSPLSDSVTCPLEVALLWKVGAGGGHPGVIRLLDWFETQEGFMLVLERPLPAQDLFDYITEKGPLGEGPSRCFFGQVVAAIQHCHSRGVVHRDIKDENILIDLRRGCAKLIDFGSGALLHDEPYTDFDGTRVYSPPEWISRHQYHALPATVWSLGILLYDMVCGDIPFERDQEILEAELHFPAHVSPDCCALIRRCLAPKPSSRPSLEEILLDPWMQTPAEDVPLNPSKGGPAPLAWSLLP
Chain of Mitogen-activated protein kinase 14 (Homo sapiens) (Q16539 whole entry): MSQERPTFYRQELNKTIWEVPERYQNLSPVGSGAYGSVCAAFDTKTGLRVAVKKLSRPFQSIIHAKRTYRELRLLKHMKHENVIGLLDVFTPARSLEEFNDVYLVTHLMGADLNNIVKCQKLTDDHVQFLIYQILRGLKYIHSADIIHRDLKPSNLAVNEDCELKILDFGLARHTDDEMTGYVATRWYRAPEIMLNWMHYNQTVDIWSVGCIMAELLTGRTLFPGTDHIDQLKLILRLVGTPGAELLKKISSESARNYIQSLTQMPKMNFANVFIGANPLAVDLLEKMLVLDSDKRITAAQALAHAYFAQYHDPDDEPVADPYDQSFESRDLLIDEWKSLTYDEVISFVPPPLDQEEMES

Structure (SMILES) | inhibition [1] [%] | inhibition [2] [%] | inhibition [3] [%] | inhibition [4] [%] | inhibition [5] [%] | inhibition [6] [%] | IC50 (PBMC) [µM] | inhibition [7] [%] | inhibition [8] [%] | inhibition [9] [%] | inhibition [10] [%] | inhibition [11] [%] | inhibition [12] [%] | inhibition [13] [%] | inhibition [14] [%] | inhibition [15] [%]
OCc1ccc(-c2cc3c(N[C@H](CO)c4ccccc4)ncnc3[nH]2)cc1 | 70 | -4 | -2 | 6 | 11 | 71 | 1.4 | 81 | 3 | 41 | 10 | -1 | 17 | 9 | 71 | –
CN(C)CCn1cc(-c2cccc(O)c2)c2c(N)ncnc21 | 49 | 0 | 8 | 2 | 7 | 3 | 1.2 | 65 | 0 | 93 | 5 | -2 | 8 | 62 | 15 | 4
OC[C@@H](Nc1ncnc2sc(-c3ccc(O)cc3)cc12)c1ccccc1 | 7 | -1 | -7 | -9 | 12 | 20 | 2.8 | 13 | 6 | 12 | 3 | 15 | 8 | 5 | 23 | 99
CCC(=O)Nc1ccc(-c2c[nH]c3ncnc(N[C@H](C)c4ccccc4)c23)cc1 | 27 | -4 | 6 | 5 | 14 | 12 | 2.1 | 9 | 0 | 23 | 8 | -3 | 3 | 3 | 22 | 98
